Biological target: T1, SARS-CoV-2 M^pro (main protease) (Severe acute respiratory syndrome coronavirus 2, UniProt P0DTD1)
T1 construct: gene rep
Experiment: FRET peptide cleavage assay, Morrison fit
Assay type: biochemical

## O=c1c(O)c(-c2ccc(O)c(O)c2)oc2cc(O)ccc12 [Fisetin]
  Ki: 41.8 ± 2.1 nM

— paper PMC9324382 (Viruses, 2022)
